Measured values published in patent US20260274807A1 (University of Health Sciences and Pharmacy in St. Louis, priority 2023, published 2026).

Legend:
ERRα = target: T1, ERRα (Homo sapiens, UniProt P11474); experiment: ERRE luciferase reporter assay in HEK293 cells transfected with pcDNA3.1 ERRα; assay type: cell-based; set-up: key to EC50 (ERRα) μM: * <1 μM; ** 1-5 μM; *** >5 μM; i.a. (inactive); conditions: HEK293 cells transfected with ERRE reporter construct and pcDNA3.1 ERRα; compound for 24 hours; luciferase activity
T1 construct: expressed in transfected cells; host or cells: HEK293
T1 sequence (P11474 1-423): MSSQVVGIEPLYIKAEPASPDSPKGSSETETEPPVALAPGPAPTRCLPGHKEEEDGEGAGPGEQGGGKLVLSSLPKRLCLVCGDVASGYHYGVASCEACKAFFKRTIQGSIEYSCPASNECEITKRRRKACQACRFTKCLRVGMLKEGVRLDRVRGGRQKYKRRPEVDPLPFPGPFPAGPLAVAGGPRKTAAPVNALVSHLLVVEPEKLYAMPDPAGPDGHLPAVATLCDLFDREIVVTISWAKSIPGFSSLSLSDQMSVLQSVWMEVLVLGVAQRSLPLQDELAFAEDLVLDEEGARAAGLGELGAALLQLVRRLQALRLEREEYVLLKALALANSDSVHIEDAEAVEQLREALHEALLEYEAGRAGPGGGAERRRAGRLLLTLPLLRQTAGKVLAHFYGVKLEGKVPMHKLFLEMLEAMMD

ERRγ = target: T2, ERRγ (Homo sapiens, UniProt P62508); experiment: ERRE luciferase reporter assay in HEK293 cells transfected with pcDNA3.1 ERRγ; assay type: cell-based; set-up: key to EC50 (ERRγ) μM: * <1 μM; ** 1-5 μM; *** >5 μM; i.a. (inactive); conditions: HEK293 cells transfected with ERRE reporter construct and pcDNA3.1 ERRγ; compound for 24 hours; luciferase activity
T2 construct: expressed in transfected cells; host or cells: HEK293
T2 sequence (P62508 1-458): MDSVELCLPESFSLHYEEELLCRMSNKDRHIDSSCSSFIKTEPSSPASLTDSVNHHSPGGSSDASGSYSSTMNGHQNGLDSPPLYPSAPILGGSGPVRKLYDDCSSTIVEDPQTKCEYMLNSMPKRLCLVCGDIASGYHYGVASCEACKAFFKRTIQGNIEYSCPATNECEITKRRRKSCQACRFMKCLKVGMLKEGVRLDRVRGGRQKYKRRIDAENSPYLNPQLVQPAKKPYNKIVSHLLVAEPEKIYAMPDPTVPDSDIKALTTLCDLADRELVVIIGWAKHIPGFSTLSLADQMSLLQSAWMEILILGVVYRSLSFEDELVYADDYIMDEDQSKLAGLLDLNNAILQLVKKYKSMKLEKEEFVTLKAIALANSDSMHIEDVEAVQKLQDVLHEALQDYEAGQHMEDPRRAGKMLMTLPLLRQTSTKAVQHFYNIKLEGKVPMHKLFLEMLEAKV

| EC50 (ERRα) [µM] | EC50 (ERRγ) [µM] | EC50 (ERRα) μM (ERRα) | EC50 (ERRγ) μM (ERRγ) | Compound |
| --- | --- | --- | --- | --- |
| < 1 | < 1 |  |  | COc1ccc(-c2nnc(-c3ccco3)s2)cc1 [Entry 1019, 2-(furan-2-yl)-5-(4-methoxyphenyl)-1,3,4-thiadiazole] |
| < 1 | < 1 |  |  | Cc1ccc(-c2nnc(-c3ccccn3)o2)cc1 [Entry 36, 2-(pyridin-2-yl)-5-(p-tolyl)-1,3,4-oxadiazole] |
| < 1 | < 1 |  |  | c1ccc(-c2nnc(-c3cccs3)o2)cc1 [Entry 3] |
| < 1 | < 1 |  |  | COc1ccc(-c2nnc(-c3ccc4ccccc4n3)o2)cc1 [Entry 23, 2-(4-methoxyphenyl)-5-(quinolin-2-yl)-1,3,4-oxadiazole] |
| 1 to 5 | > 5 |  |  | Cc1ccc(-c2nnc(-c3ccc(C(F)(F)F)cc3)o2)o1 [Entry 45, 2-(5-methylfuran-2-yl)-5-(4-(trifluoromethyl)phenyl)-1,3,4-oxadiazole] |
| < 1 | < 1 |  |  | CC(C)(C)c1ccc(-c2nnc(-c3ccccc3N)o2)cc1 [Entry 75, 2-(5-(4-(tert-butyl)phenyl)-1,3,4-oxadiazol-2-yl)aniline] |
| < 1 | < 1 |  |  | Oc1ccc(-c2nnc(-c3ccc4ccccc4c3)s2)cc1 [Entry 1046, 4-(5-(naphthalen-2-yl)-1,3,4-thiadiazol-2-yl)phenol] |
| 1 to 5 | 1 to 5 |  |  | O=[N+]([O-])c1ccccc1Cc1nnc(-c2ccc(C(F)(F)F)cc2)s1 [Entry 1028, 2-(2-nitrobenzyl)-5-(4-(trifluoromethyl)phenyl)-1,3,4-thiadiazole] |
|  |  | i.a. | i.a. | Oc1ccc(-c2nnc(-c3ccc4ccccc4n3)s2)cc1 [Entry 1047, 4-(5-(quinolin-2-yl)-1,3,4-thiadiazol-2-yl)phenol] |
| 1 to 5 | > 5 |  |  | COc1ccc(-c2nnc(-c3cccc(C(F)(F)F)c3)o2)cc1 |
| < 1 | < 1 |  |  | COc1ccc(-c2nnc(-c3ccco3)o2)cc1 [Entry 18, 2-(furan-2-yl)-5-(4-methoxyphenyl)-1,3,4-oxadiazole] |
| < 1 | < 1 |  |  | COc1ccc(-c2nnc(-c3cccs3)o2)cc1 [Entry 20, 2-(4-methoxyphenyl)-5-(thiophen-2-yl)-1,3,4-oxadiazole] |
| < 1 | < 1 |  |  | O=[N+]([O-])c1ccccc1Cc1nnc(-c2ccc(C(F)(F)F)cc2)o1 [Entry 16, 2-(2-nitrobenzyl)-5-(4-(trifluoromethyl)phenyl)-1,3,4-oxadiazole] |
| < 1 | 1 to 5 |  |  | COc1ccc(-c2nnc(-c3ccc(Br)cc3)s2)cc1 [Entry 1018, 2-(4-bromophenyl)-5-(4-methoxyphenyl)-1,3,4-thiadiazole] |
| 1 to 5 | 1 to 5 |  |  | O=[N+]([O-])c1ccc(-c2nnc(-c3cccc([N+](=O)[O-])c3)o2)cc1 [Entry 12, 2-(3-nitrophenyl)-5-(4-nitrophenyl)-1,3,4-oxadiazole] |
| < 1 | < 1 |  |  | COc1cccc(-c2nnc(-c3ccc(C)cc3)o2)c1 [Entry 41, 2-(3-methoxyphenyl)-5-(p-tolyl)-1,3,4-oxadiazole] |
| 1 to 5 | > 5 |  |  | O=[N+]([O-])c1cccc(-c2nnc(-c3cccc(C(F)(F)F)c3)o2)c1 [Entry 63, 2-(3-nitrophenyl)-5-(3-(trifluoromethyl)phenyl)-1,3,4-oxadiazole] |
| > 5 | > 5 |  |  | O=[N+]([O-])c1ccc(-c2nnc(-c3ccc(C(F)(F)F)cc3)o2)cc1 [Entry 52, 2-(4-nitrophenyl)-5-(4-(trifluoromethyl)phenyl)-1,3,4-oxadiazole] |
| < 1 | < 1 |  |  | Nc1cccc(-c2nnc(-c3ccccc3)o2)c1 [Entry 69, 3-(5-phenyl-1,3,4-oxadiazol-2-yl)aniline] |
| < 1 | < 1 |  |  | COC(=O)c1cccc(-c2nnc(-c3ccccc3Cl)s2)c1 [Entry 1050, methyl 3-(5-(2-chlorophenyl)-1,3,4-thiadiazol-2-yl)benzoate] |
| < 1 | < 1 |  |  | COc1ccc(-c2nnc(-c3ccccc3[N+](=O)[O-])o2)cc1 [Entry 82, 2-(4-methoxyphenyl)-5-(2-nitrophenyl)-1,3,4-oxadiazole] |
| < 1 | < 1 |  |  | c1ccc(-c2nnc(C3CCCCC3)s2)cc1 [Entry 1006, 2-cyclohexyl-5-phenyl-1,3,4-thiadiazole] |
| < 1 | < 1 |  |  | COC(=O)c1ccc(-c2nnc(-c3ccccc3Cl)s2)cc1 [Entry 1051, methyl 4-(5-(2-chlorophenyl)-1,3,4-thiadiazol-2-yl)benzoate] |
